Data from patent US10266565B2, “Peptide mimetic ligands of polo-like kinase 1 polo box domain and methods of use” (The United States of America, as represented by the …, priority 2011, dated 2019).
Entries after “also recorded” stand apart in the source; their conditions may differ. *1 amine or outer side, *2 acyl side, *3 side chain or, on linkers, in order; H or OH if unused. Where a SMILES comes first, the peptide text is derived from it. Where no end group is shown, it is not given here. [ ]: non-standard residue; d: D form. Abu(3R-Me,4-PO3H2) = C[C@@H](CP(=O)(O)O)[C@H](N)C(=O)O; X1 = C[C@H]([C@H](N[*:1])C(=O)[*:2])C(F)(F)P(=O)(O)O; pT = C[C@@H](OP(=O)(O)O)[C@H](N)C(=O)O

Experiments:
Plk1 = target: T1, Plk1 (Homo sapiens, UniProt P53350); test: Peptide pull-down assay with bead-immobilized peptides, Plk1; assay type: binding; settings: mitotic cell lysates
T1 construct: we used total lysates prepared from mitotic HeLa cells; endogenous in cells; host or cells: mitotic (nocodazole-arrested) HeLa cells
T1 sequence (P53350 2-603): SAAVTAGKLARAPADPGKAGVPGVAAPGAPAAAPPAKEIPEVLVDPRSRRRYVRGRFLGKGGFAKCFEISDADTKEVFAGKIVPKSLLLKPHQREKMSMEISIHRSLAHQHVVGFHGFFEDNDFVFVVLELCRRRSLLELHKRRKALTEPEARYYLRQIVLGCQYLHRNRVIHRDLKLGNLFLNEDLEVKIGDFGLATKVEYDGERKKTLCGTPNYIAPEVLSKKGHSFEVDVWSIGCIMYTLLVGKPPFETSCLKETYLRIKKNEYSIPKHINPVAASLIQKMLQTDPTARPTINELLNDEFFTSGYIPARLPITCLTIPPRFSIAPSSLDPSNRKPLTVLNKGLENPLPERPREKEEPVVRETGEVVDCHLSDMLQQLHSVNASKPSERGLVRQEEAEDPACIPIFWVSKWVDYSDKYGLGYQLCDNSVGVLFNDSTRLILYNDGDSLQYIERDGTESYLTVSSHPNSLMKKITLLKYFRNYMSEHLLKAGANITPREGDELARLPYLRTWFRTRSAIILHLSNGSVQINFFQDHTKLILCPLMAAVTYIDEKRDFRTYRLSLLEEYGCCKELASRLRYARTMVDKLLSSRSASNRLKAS
Procedure: For Plk1 pull-down assays with immobilized peptides, we used total lysates prepared from mitotic HeLa cells. […] Cells treated with 200 ng/ml of nocodazole for 16 h were lysed in TBSN buffer {20 mM Tris-Cl (pH8.0), 150 mM NaCl, 0.5% NP-40, 5 mM EGTA, 1.5 mM EDTA, 0.5 mM Na3VO4, 20 mM p-nitrophenyl phosphate, and protease inhibitor cocktail (Roche, Nutley, N.J.)}, and then clarified by centrifugation at 15,000×g for 20 min at 4° C. The resulting lysates were incubated with bead-immobilized peptides (40 μM per binding) for 2 h, precipitated, washed, and then boiled in sodium dodecyl sulfate (SDS) sample buffer to elute the associated proteins. Samples were separated by 10% SDS-polyacrylamide gel electrophoresis (PAGE), and then either stained with silver or transferred to PVDF membrane for immunoblotting analysis with anti-Plk1 antibody using the enhanced chemiluminescence (ECL) detection system (Pierce). […]

Plk1 PBD = Plk1 PBD (Homo sapiens, UniProt P53350); test: ELISA-based PBD-binding inhibition assay (immobilized biotinylated p-T78 peptide, HA-EGFP-Plk1 lysates); settings: relative to the comparator named in the sentence
Chain of Plk1 PBD (P53350 whole entry): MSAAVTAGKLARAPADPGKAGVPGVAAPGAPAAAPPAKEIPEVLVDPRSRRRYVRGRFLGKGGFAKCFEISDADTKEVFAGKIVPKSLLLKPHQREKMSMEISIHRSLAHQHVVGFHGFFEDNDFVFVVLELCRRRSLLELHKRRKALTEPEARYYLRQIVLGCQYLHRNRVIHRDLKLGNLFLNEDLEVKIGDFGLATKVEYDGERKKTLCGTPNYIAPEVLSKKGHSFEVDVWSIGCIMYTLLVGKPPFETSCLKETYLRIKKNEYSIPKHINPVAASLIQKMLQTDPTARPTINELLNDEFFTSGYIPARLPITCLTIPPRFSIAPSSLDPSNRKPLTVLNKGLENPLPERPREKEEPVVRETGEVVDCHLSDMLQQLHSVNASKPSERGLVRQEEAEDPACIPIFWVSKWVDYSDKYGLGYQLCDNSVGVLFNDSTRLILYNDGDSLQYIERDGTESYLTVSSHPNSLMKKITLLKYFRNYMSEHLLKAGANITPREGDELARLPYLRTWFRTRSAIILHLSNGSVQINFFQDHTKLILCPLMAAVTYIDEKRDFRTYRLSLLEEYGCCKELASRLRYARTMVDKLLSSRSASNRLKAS
Procedure: The wells were washed once with PBS plus 0.05% Tween20 (PBST), and incubated with 200 μl of PBS plus 1% BSA (blocking buffer) for 1 h to prevent non-specific binding. […] Following the incubation, ELISA plates were washed 4 times with PBST. To detect bound HA-EGFP-Plk1, the plates were probed for 2 h with 100 μl/well of anti-HA antibody at a concentration of 0.5 μg/ml in blocking buffer and then washed 5 times. The plates were further probed for 1 h with 100 μl/well of HRP-conjugated secondary antibody (GE Healthcare, Piscataway, N.J.) at a 1:1,000 dilution in blocking buffer. The plates were washed 5 times with PBST and incubated with 100 μl/well of 3,3′,5,5′-tetramethylbenzidine (TMB) solution (Sigma, St. Louis, Mo.) as a substrate until a desired absorbance was reached. […] The optical density (O.D.) was measured at 450 nm by using an ELISA plate reader (Molecular Devices, Sunnyvale, Calif.).
A biotinylated p-T78 peptide was first diluted with IX coating solution (KPL Inc., Gaithersburg, Md.) to a final concentration of 0.3 μM, and then 100 μL of the resulting solution was immobilized onto a 96-well streptavidin-coated plate (Nalgene Nunc, Rochester, N.Y.). […] The plates were washed 5 times with PBST and incubated with 100 μL/well of 3,3′,5,5′-tetramethylbenzidine (TMB) substrate solution (Sigma, St. Louis, Mo.) until a desired absorbance was achieved. […]

[1] = target: Plk1 PBD-p-Cdc25C interaction (Homo sapiens, UniProt P53350); test: Competition of the PBD-p-Cdc25C interaction in mitotic HeLa lysates; assay type: binding; settings: GST-PBD
Chain of Plk1 PBD-p-Cdc25C interaction (P53350 326-603 limits assumed): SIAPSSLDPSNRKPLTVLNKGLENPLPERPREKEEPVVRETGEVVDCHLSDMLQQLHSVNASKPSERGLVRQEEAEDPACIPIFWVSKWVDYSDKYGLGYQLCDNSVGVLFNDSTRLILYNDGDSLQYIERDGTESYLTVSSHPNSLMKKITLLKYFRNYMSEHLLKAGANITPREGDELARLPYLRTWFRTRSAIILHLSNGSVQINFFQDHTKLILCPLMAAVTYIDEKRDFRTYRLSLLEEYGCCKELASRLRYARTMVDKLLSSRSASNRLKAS
Procedure: For p-Cdc25C pull-down assays, either bead-bound GST-PBD or the corresponding GST-PBD(H538A K540M) mutant was incubated with mitotic HeLa lysates in TBSN buffer supplemented with 2 mM DTT. To test the ability of the indicated peptides to compete the PBD-p-Cdc25C interaction, lysates were pre-incubated with GST-PBD for 1.5 h prior to the addition of the indicated peptides. Lysates were then incubated for additional 1.5 h, washed in the binding buffer, and then analyzed. For competition of the interaction between p-Cdc25C and endogenous Plk1, mitotic lysates were prepared in TBSN and incubated with the indicated peptides for 1 h before subjecting to immunoprecipitation with anti-Plk1 antibody.

Plk2 PBD = target: T2, Plk2 PBD (Homo sapiens, UniProt Q9NYY3); test: Isothermal titration calorimetry with recombinant Plk2 PBD
T2 sequence (Q9NYY3 373-685): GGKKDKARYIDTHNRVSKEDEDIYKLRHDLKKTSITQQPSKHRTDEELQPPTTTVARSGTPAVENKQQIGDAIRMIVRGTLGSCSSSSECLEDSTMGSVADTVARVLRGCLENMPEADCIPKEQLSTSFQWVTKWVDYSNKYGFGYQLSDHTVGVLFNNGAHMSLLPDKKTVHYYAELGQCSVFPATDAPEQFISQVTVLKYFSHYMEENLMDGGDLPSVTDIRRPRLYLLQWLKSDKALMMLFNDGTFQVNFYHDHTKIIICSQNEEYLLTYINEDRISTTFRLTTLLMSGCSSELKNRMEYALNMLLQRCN
Procedure: The calorimetric titrations were carried out using purified recombinant PBDs (for Plk1 and Plk2) from bacterial cells and the indicated peptides.
The calorimetric titrations were performed on a VP-ITC titration calorimeter (Microcal, Inc., Northampton, Mass.). In a typical experiment, 5 l aliquots of a phosphorylated peptide were injected from a 250 l syringe into a rapidly mixing (300 rpm) solution of Plk1 PBD (cell volume=1.3472 ml). Control experiments involved injecting identical amounts of the peptide solution into buffer without Plk1 PBD. […] Titrations were carried out at 25° C. in 20 mM Tris-Cl (pH 7.5), 100 mM NaCl, 3 mM DTT. The isotherms, corrected for dilution/buffer effects, were fit using the Origin ITC Analysis software according to manufacturer's protocols. A nonlinear least-square method was used to fit the titration data and to calculate the errors. Consistent with the structural data, a 1:1 stoichiometry was assumed and the data were fit to a one-site binding model. From the binding curve, values for enthalpy and binding affinity were extracted. Thermodynamic parameters were calculated using ΔG=−RTlnKa, ΔG=ΔH−TΔS.
Full length PBD was dialyzed against a low salt buffer (20 mM Tris-Cl, pH 7.5, 100 mM NaCl, 3 mM DTT), and used in calorimetry experiments.

Plk3 = target: T3, Plk3 (Homo sapiens, UniProt Q9H4B4, K91R); test: Peptide pull-down assay with bead-immobilized peptides, Plk3; assay type: binding
T3 construct: expressed in transfected cells; construct a gift of Wei Dai
T3 sequence (Q9H4B4 40-646 K91R limits assumed): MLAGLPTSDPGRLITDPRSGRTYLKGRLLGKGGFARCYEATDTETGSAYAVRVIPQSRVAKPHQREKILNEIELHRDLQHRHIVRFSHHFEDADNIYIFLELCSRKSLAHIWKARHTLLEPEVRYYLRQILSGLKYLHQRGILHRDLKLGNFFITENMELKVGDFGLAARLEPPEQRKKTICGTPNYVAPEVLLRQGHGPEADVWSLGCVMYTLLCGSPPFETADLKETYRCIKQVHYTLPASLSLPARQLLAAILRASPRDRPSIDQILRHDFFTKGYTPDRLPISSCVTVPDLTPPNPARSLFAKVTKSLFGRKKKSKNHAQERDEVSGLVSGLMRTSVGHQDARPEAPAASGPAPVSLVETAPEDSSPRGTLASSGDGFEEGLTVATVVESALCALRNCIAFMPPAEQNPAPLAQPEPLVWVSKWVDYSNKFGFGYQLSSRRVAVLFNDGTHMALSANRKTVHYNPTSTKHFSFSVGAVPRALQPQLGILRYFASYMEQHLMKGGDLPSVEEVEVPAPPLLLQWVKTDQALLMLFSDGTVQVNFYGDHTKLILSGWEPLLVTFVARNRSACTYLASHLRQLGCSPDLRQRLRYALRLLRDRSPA

HeLa cells [2] = test: Direct treatment of cultured HeLa cells (mitotic arrest, apoptotic cell death, Plk1 localization); assay type: cell-based; settings: 200 μM
Plk2 = target: T4, Plk2 (Mus musculus, UniProt P53351, K108M); test: Peptide pull-down assay with bead-immobilized peptides, Plk2; assay type: binding
T4 construct: expressed in transfected cells
T4 sequence (P53351 whole entry K108M): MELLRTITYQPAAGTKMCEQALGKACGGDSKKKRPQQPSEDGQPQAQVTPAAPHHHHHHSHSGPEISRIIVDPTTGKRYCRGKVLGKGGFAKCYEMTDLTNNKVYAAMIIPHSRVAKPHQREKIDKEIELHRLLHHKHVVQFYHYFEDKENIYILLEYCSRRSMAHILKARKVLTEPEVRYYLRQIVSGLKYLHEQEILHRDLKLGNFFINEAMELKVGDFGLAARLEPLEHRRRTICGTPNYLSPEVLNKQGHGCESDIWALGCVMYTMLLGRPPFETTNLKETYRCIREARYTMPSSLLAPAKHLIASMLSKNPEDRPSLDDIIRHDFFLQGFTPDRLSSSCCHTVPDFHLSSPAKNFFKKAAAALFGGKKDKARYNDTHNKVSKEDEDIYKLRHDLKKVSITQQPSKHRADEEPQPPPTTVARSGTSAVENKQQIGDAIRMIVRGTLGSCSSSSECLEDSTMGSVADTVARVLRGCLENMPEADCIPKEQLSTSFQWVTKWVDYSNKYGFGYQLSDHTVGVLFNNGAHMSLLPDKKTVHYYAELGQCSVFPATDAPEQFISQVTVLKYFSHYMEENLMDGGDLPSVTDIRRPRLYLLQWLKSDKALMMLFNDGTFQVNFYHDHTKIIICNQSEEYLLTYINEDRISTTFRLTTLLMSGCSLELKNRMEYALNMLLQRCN
Procedure: After incubating the cell lysates prepared in TBSN buffer {20 mM Tris-Cl (pH8.0), 150 mM NaCl, 0.5% Np-40, 5 mM EGTA, 1.5 mM EDTA, 20 mM p-nitrophenylphosphate and protease inhibitor cocktail (Roche, Nutley, N.J.)} with the bead-immobilized ligands for 2 h at 4° C., the ligand-associating proteins were precipitated, washed, boiled in sodium dodecyl sulfate (SDS) sample buffer, separated by 8% SDS-polyacrylamide gel electrophoresis (PAGE), and then subjected to immunoblotting analysis with anti-Flag antibody and the enhanced chemilunimescence (ECL) detection system (Pierce). The same membrane was also stained with Coomassies (CBB). Signal intensities were quantified using Image J program.
To investigate the binding specificity of p-T78 peptides to various Plks, Flag-Plk1 (K82M), Flag-Plk2(K108M)3 or Flag-Plk3(K52R) (a gift of Wei Dai, New York University School of Medicine, NY) construct was first transfected into HeLa cells. Cellular lysates were prepared as above, mixed, and then incubated in TBSN buffer with the immobilized peptides indicated.

HeLa cells [3] = settings: Yun et al. 2009; cited from earlier work
[4] = Toxicity in cell-based experiments
[5] = target: recombinant Plk1 PBD (full length PBD, calorimetry) (UniProt P53350); test: ITC, 25 C; 5-mer LHSpTA (SEQ ID NO: 3)
Chain of recombinant Plk1 PBD (full length PBD, calorimetry) (P53350 326-603 limits assumed): as the sequence (P53350 326-603 limits assumed) above

[6] = target: T5, recombinant Plk2 PBD (residues 373 to 685) (human) (UniProt Q9NYY3); test: ITC
T5 sequence (looked up): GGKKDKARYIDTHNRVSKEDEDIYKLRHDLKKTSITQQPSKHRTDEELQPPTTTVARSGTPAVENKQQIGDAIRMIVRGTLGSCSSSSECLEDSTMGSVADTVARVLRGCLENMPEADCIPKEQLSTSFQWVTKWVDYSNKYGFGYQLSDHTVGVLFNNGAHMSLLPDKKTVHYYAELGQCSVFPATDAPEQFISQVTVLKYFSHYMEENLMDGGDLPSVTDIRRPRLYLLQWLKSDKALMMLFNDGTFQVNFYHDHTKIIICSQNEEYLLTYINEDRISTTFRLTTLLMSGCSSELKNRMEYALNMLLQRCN

Flag-Plk2 (K108M) [7] = target: Flag-Plk2 (K108M) (UniProt Q9NYY3); test: assay not stated at this place (peptide pull-down by paragraph 548)
Flag-Plk1 (K82M) = Flag-Plk1 (K82M) (UniProt P53350 1-603); test: pull-down with bead-immobilized peptide, mitotic HeLa lysate
Chain of Flag-Plk1 (K82M) (P53350 whole entry K82M): as the sequence (P53350 whole entry) above, with K82M counted along it

HA-EGFP-Plk1 [8] = target: T6, HA-EGFP-Plk1 (UniProt P53350 1-603); test: ELISA-based PBD-binding inhibition assay: peptide as competitor of the immobilized biotinylated 9-mer p-T78 peptide for HA-EGFP-Plk1 in mitotic 293A cell lysate; bound Plk1 detected with anti-HA, OD 450 nm
T6 construct: In lysates of mitotic 293A cells infected with adenovirus expressing HA-EGFP-Plk1
T6 sequence (P53350 whole entry): as the sequence (P53350 whole entry) above

HA-EGFP-Plk1 [9] = target: T6, HA-EGFP-Plk1; test: competition ELISA, HA-EGFP-Plk1 lysate on immobilized biotin p-T78 9-mer
[10] = target: T5, recombinant Plk2 PBD (residues 373 to 685) (human); test: ITC; saturable binding not observed
Flag-Plk2 (K108M) [11] = target: Flag-Plk2 (K108M) (UniProt Q9NYY3); test: pull-down with bead-immobilized peptide, mixed Flag-Plk1/2/3 lysates (HeLa)

## CC(=O)N[C@@H](CC(C)C)C(=O)N[C@@H](Cc1c[nH]cn1)C(=O)N[C@@H](CO)C(=O)N[C@H](C(=O)N[C@@H](C)C(N)=O)[C@@H](C)OP(=O)(O)O [LHSpTA]
Plk1
  Plk1 binding / precipitation in pull-down, in words: bound to Plk1 almost as efficiently as PLHSpT
Plk1 PBD
  Plk1 PBD-binding affinity / inhibition, in words: inhibited the PBD at a moderately reduced level
[1]
  disruption of the pre-formed PBD-p-Cdc25C complex: disrupted the pre-formed PBD-p-Cdc25C complex nearly as efficiently as PLHSpT
Plk2 PBD
  interaction with Plk2 PBD by calorimetry, in words: virtually no interactions with Plk2

## COCCOCCOCCOCCOCCOCCOCCOCCC(=O)N1CCC[C@H]1C(=O)N[C@@H](CC(C)C)C(=O)N[C@@H](Cc1cncn1CCCCCCCCc1ccccc1)C(=O)N[C@@H](CO)C(=O)N[C@H](C(N)=O)[C@@H](C)CP(=O)(O)O [PEG-4j*]
Plk3
  Plk3 binding / precipitation in pull-down, in words: failed to significantly interact
HeLa cells [2]
  Plk1 delocalization and misaligned chromosomes: drastic Plk1 delocalization from centrosomes and kinetochores, and severe misaligned chromosomes
  mitotic arrest / apoptotic cell death / cellular response: effectively induced mitotic arrest and apoptotic cell death
Plk2
  Plk2 binding / precipitation in pull-down, in words: failed to significantly interact

## CC(=O)N1CCC[C@H]1C(=O)N[C@@H](CC(C)C)C(=O)N[C@@H](Cc1c[nH]cn1)C(=O)N[C@@H](CO)C(=O)N[C@H](C(N)=O)[C@@H](C)OP(=O)(O)O [compound 1, PLHSpT]
HeLa cells [3]
  Plk1 localization and apoptotic cell death after microinjection: interferes with proper subcellular localization of Plk1 and induces apoptotic cell death
HeLa cells [2]
  mitotic arrest / apoptotic cell death / cellular response: failed to elicit a detectable cellular response; also recorded: failed to generate a detectable level of cellular effect

## CC(=O)N1CCC[C@H]1C(=O)N[C@@H](CC(C)C)C(=O)N[C@@H](Cc1c[nH]cn1)C(=O)N[C@@H](CO)C(=O)N[C@H](C(=O)N[C@@H](C)C(N)=O)[C@@H](C)C(F)(F)P(=O)(O)O [compound 25, PLHS-F2Pmab-A] (Ac-PLHS[X1]A-NH2)
[4]
  toxicity: significant toxicity

## LHSpTA (peptide)
[5]
  Kd: 450 nM

B1: PLQSpT (peptide)
peptide: PLQS[pT]
[6]
  initial heats of interaction: -1.1 kcal/mol
Flag-Plk2 (K108M) [7]
  fold increase of Plk2 binding: 24 fold

B2: PLHA-Pmab (peptide)
peptide: PLHA[Abu(3R-Me,4-PO3H2)]
notes: also called 24; Pmab(S77A)
Flag-Plk1 (K82M)
  binding result: no binding
HA-EGFP-Plk1 [8]
  binding result: no binding (tested: 300 µM)
HA-EGFP-Plk1 [9]
  fold higher molar concentration without inhibition: > 1000 fold

B3: MQSpTPL (peptide)
peptide: MQS[pT]PL
[10]
  initial heats of interaction: -1.68 kcal/mol
Flag-Plk2 (K108M) [11]
  efficiency of precipitation relative to Plk1: 27%
